Measured values from patent publication US7271190B2, “Indazole compounds as β3 adrenoceptor agonist” (Asahi Kasei Pharma Corporation, priority 2001, dated 2007).
Structures can show the parent of a compound that is named as a salt.

How the values were obtained:
human β3 = biological target: T1, human β3 (Homo sapiens, UniProt P13945); assay: Human β3-agonist activities (cAMP in transfected CHO cells); assay type: cell-based; settings: for EC50: CHO cells expressing human β3, cAMP, 30 minutes; for Emax: CHO, read-out: Intrinsic activity*
T1 construct: used as a probe to obtain the full length human β3 gene from a human genomic library; expressed in transfected cells; host or cells: CHO (Chinese hamster ovary) cells, pcDNA3 vector
T1 sequence (P13945 whole entry): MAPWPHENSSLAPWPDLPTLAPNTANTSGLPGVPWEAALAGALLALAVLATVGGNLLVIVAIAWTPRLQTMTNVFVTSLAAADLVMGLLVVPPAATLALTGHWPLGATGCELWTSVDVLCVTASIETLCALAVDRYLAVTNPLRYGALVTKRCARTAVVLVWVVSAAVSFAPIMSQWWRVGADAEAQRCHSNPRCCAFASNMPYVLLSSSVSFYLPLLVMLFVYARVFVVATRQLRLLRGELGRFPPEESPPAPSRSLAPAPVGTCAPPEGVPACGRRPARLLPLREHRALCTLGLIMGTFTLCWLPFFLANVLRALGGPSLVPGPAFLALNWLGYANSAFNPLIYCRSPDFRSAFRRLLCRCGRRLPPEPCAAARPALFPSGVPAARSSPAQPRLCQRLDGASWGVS
Method: Human β3-Agonist Activities
Human β3-agonist activities were determined using CHO (Chinese hamster ovary) cells transfected with pcDNA3 (mfd. by Invitrogen) to which human β3 gene had been inserted. Human β3 fragment was first obtained from human adipose tissue cDNA (mfd. by Clonetech) by PCR using the primer of β3 (Krief, et al., J. Clin. Invest., vol. 91, pp. 344-349 (1993)). The human β3 fragment thus obtained was used as a probe to obtain the full length human β3 gene from a human genomic library (mfd. by Clonetech). The above cells were cultured in a Ham F-12 medium supplemented with 10% fetal bovine serum, 400 μg/mL geneticin (Gibco BRL), 100 U/mL penicillin and […] streptomycin. After placing these cells (5×10^5) into a 6-well plate and culturing them for 24 hours, they were allowed to stand on a serum-free Ham F-12 medium for 2 hours. The compound was first dissolved in DMSO, repeatedly diluted by ten times with Ham F-12 supplemented with 1 mM isobutylmethyl-xanthine and 1 mM ascorbic acid to a final concentration of from 10^−5 to 10^−12 M, and then added to the cells. After the cells were cultured for 30 minutes, the medium was removed, followed by addition of 0.5 mL of 1 N NaOH. The medium was allowed to stand for 20 minutes and then 0.5 mL of 1 N acetic acid was added to the medium. The medium was stirred and then centrifuged, followed by quantitating cAMP with cAMP EIA kit (mfd. by Cayman). Isoproterenol was purchased from RBI (Research Biochemicals International).

ddy mice = assay: Toxicity test, oral, mice; assay type: in vivo; settings: orally, 100 mg/kg, 6-week old male ddy mice, eight animals
Method: Each of the present compounds synthesized in Examples 1 and 2 were orally administered to 6-week old male ddy mice (CHARLES RIVER JAPAN) at 100 mg/kg. […] The other compounds, which achieved the same results, were also shown to have a low toxicity.

[1] = Relative activities (%) as compared with isoproterenol

Compound | EC50 (human β3) [nM] | Emax (human β3; [1]) [%] | animals found dead (ddy mice) | Intrinsic activity* (human β3; [1]) [%]
CCOC(=O)c1[nH]c2cc(OCCNC[C@H](O)c3cccc(NS(C)(=O)=O)c3)ccc2c1C [Example 1, ethyl (R)-6-[2-[2-(3-methylsulfonylamino)phenyl-2-hydroxyethylamino]ethoxy]-3-methyl-1H-indole-2-carboxylate hydrochloride] | 15 | 97 | none of the eight animals were found to be dead | 
Cc1c(C(=O)O)[nH]c2cc(OCCNC[C@H](O)c3cccc(NS(C)(=O)=O)c3)ccc12 [Example 2, (R)-6-[2-[2-(3-methylsulfonylamino)phenyl-2-hydroxyethylamino]ethoxy]-3-methyl-1H-indole-2-carboxylic acid] | 18 | 124 | none of the eight animals were found to be dead | 
CCOC(=O)CCc1c(C)[nH]c2cc(OCCNC[C@H](O)c3cccc(NS(C)(=O)=O)c3)ccc12 [Example 13, ethyl (R)-3-[6-[2-[2-(3-methylsulfonylamino)phenyl-2-hydroxyethylamino]ethoxy]-2-methyl-1H-indol-3-yl]propionate] | 23 | 38 |  | 
CCOC(=O)CCc1c(CC)[nH]c2cc(OCCNC[C@H](O)c3cccc(NS(C)(=O)=O)c3)ccc12 [Example 20] | 32 | 55 |  | 
Cc1c(-c2cccnc2)[nH]c2cc(OCCNC[C@H](O)c3cccc(NS(C)(=O)=O)c3)ccc12 [Example 72, (R)-N-[3-[1-hydroxy-2-[2-(3-methyl-2-pyridin-3-yl-1H-indol-6-yloxy)ethylamino]ethyl]phenyl]methanesulfonamide] | 2.8 | 105 |  | 
CCc1c(-c2cccnc2)[nH]c2cc(OCCNC[C@H](O)c3cccc(NS(C)(=O)=O)c3)ccc12 [Example 73, (R)-N-[3-[2-[2-(3-ethyl-2-pyridin-3-yl-1H-indol-6-yloxy)ethylamino]-1-hydroxyethyl]phenyl]methanesulfonamide] | 3.5 | 75 |  | 
Cc1c(-c2ccncc2)[nH]c2cc(OCCNC[C@H](O)c3cccc(NS(C)(=O)=O)c3)ccc12 [Example 74, (R)-N-[3-[1-hydroxy-2-[2-(3-methyl-2-pyridin-4-yl-1H-indol-6-yloxy)ethylamino]ethyl]phenyl]methanesulfonamide] | 3.9 | 71 |  | 
Cc1c(C2CCCN(C(=O)OC(C)(C)C)C2)[nH]c2cc(OCCNC[C@H](O)c3cccc(NS(C)(=O)=O)c3)ccc12 (stereo partly drawn) [Example 75, (R)-N-[3-[2-[2-[2-(N′-t-butyloxycarbonylpiperidin-3-yl)-3-methyl-1H-indol-6-yloxy]ethylamino]-1-hydroxyethyl]phenyl]methanesulfonamide] | 4.4 | 79 |  | 
Cc1c(C2CCCNC2)[nH]c2cc(OC[C@@H](O)NCCc3cccc(NS(C)(=O)=O)c3)ccc12 (stereo partly drawn) [Example 76, (R)-N-[3-[2-[1-hydroxy-2-(3-methyl-2-piperidin-3-yl-1H-indol-6-yloxy)ethylamino]ethyl]phenyl]methanesulfonamide] | 21 |  |  | 76
Cc1c(-c2cccnc2)[nH]c2cc(OCCNC[C@H](O)c3ccc(F)c(NS(C)(=O)=O)c3)ccc12 [Example 79, (R)-N-[2-fluoro-5-[1-hydroxy-2-[2-(3-methyl-2-pyridin-3-yl-1H-indol-6-yloxy)ethylamino]ethyl]phenyl]methanesulfonamide] | 3.4 | 65 |  | 
CCOC(=O)CCc1[nH]c2cc(OCCNC[C@H](O)c3ccc(F)c(NS(C)(=O)=O)c3)ccc2c1C [Example 80, ethyl (R)-3-[6-[2-[2-(4-fluoro-3-methylsulfonylaminophenyl)-2-hydroxyethylamino]ethoxy]-3-methyl-1H-indol-2-yl]propionate] | 2.8 | 63 |  | 
Cc1c(CCC(=O)N(C)C)[nH]c2cc(OCCNC[C@H](O)c3cccc(NS(C)(=O)=O)c3)ccc12 [Example 81] | 2.8 | 77 |  | 
CCOC(=O)CCc1[nH]c2cc(OCCNC[C@H](O)c3cccc(NS(C)(=O)=O)c3)ccc2c1C [Example 82, ethyl (R)-3-[3-methyl-6-[2-[2-(3-methylsulfonylaminophenyl)-2-hydroxyethylamino]ethoxy]-1H-indol-2-yl]propionate] | 1.4 | 81 |  | 
Cc1n[nH]c2cc(OCCNC[C@H](O)c3cccc(NS(C)(=O)=O)c3)ccc12 [Example 84, (R)-N-[3-[2-[2-(3-methylindazol-6-yloxy)ethylamino]-1-hydroxyethyl]phenyl]methanesulfonamide hydrochloride] | 12 | 81 |  | 
COc1n[nH]c2cc(OCCNC[C@H](O)c3cccc(NS(C)(=O)=O)c3)ccc12 [Example 86, (R)-N-[3-[2-[2-(3-methoxyindazol-6-yloxy)ethylamino]-1-hydroxyethyl]phenyl]methanesulfonamide] | 26 | 64 |  | 
Cc1n[nH]c2cc(OCCNC[C@H](O)c3ccc(Cl)c(NS(C)(=O)=O)c3)ccc12 [Example 88, (R)-N-[5-[2-[2-(3-methylindazol-6-yloxy)ethylamino]-1-hydroxyethyl]-2-chlorophenyl]methanesulfonamide] | 4.7 | 52 |  | 
CNS(=O)(=O)c1cc([C@@H](O)CNCCOc2ccc3c(C)n[nH]c3c2)ccc1O [Example 89, (R)-N-methyl-[5-[2-[2-(3-methylindazol-6-yloxy)ethylamino]-1-hydroxyethyl]-2-hydroxyl]benzenesulfonamide] | 11 | 80 |  | 
